Patent US9024041B2, “P38 MAP kinase inhibitors” (Respivert Ltd., priority 2010, dated 2015)
Marks after values point to notes of the source that are not given here.

Tests used:
[1] = molecular target: T1, Recombinant, phosphorylated p38 MAPKγ (MAPK12:Invitrogen) (Homo sapiens, UniProt P53778); assay: p38 MAPKγ enzyme inhibition assay (FRET, Z-LYTE); format: biochemical; conditions: 2 hr pre-incubation, ATP 100 μM; read-out: Enzyme Inhibition IC50 p38γ
T1 construct: purchased Invitrogen
T1 sequence (P53778 1-367): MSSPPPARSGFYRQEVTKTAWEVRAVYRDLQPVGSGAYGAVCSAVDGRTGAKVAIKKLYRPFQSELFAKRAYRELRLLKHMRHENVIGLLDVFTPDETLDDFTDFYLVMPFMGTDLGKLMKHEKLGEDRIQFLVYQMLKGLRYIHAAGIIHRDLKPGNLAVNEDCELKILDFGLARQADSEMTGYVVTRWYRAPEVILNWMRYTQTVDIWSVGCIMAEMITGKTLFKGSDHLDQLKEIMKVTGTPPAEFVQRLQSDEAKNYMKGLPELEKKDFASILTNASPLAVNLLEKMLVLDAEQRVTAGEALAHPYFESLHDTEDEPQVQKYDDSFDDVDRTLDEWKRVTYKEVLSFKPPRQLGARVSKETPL
Method: The enzyme inhibitory activities of compounds disclosed herein were determined by fluorescence resonance energy transfer (FRET) using synthetic peptides labelled with both donor and acceptor fluorophores (Z-LYTE, Invitrogen Ltd., Paisley, UK). Recombinant, phosphorylated p38 MAPKγ (MAPK12:Invitrogen) was diluted in HEPES buffer, mixed with the test compound at the desired final concentrations and incubated for 2 hr at RT. The FRET peptide (2 μM) and ATP (100 μM) were added to the enzyme/compound mixture and incubated for 1 hr. Development reagent (protease) was added for 1 hr prior to detection in a fluorescence microplate reader (Varioskan® Flash, ThermoFisher Scientific). The site-specific protease cleaves non-phosphorylated peptide only and eliminates the FRET signal. Phosphorylation levels of each reaction were calculated using the ratio of coumarin emission (donor) over fluorescein emission (acceptor) for which high ratios indicate high phosphorylation and low ratios indicate low phosphorylation levels.

[2] = molecular target: T2, p38 MAPKα isoform (MAPK14: Invitrogen) (Homo sapiens, UniProt Q16539); assay: p38 MAPKα enzyme inhibition assay (FRET, Z-LYTE, via MAPKAP-K2 activation); format: biochemical; conditions: 2 hr pre-incubation, ATP 10.0 μM; read-out: Enzyme Inhibition IC50 p38α
T2 construct: purchased Invitrogen
T2 sequence (Q16539 whole entry, canonical isoform): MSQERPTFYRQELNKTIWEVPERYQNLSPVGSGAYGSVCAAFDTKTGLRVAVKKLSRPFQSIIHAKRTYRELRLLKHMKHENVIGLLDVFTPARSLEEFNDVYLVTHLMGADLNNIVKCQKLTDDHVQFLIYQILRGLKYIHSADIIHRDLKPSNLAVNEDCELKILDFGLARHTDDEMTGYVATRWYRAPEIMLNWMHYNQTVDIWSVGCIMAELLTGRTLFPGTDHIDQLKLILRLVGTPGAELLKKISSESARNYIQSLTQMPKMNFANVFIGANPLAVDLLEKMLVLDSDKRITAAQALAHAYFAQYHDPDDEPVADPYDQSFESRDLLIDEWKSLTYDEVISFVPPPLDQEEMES

[3] = test system: LPS-induced TNFα release in d-U937 cells; assay: LPS-induced TNFα release in d-U937 cells; format: cell-based; conditions: Homo sapiens, dU937, 4 h; read-out: LPS/TNFα REC50 d-U937
Method: (§1) Cellular Potency as Determined by LPS-Induced TNFα/IL-8 Release in d-U937Cells
(§2) U937 cells, a human monocytic cell line, were differentiated to macrophage-type cells by incubation with phorbol myristate acetate (PMA; 100 ng/mL) for 48 to 72 hr. Cells were pre-incubated with final concentrations of test compound for 2 hr and were then stimulated with 0.1 μg/mL of LPS (from E. Coli: O111:B4, Sigma) for 4 hr. The supernatant was collected for determination of TNFα and IL-8 concentrations by sandwich ELISA (Duo-set, R&D systems). […] The relative 50% effective concentration (REC50) was determined from the resultant concentration-response curve. The inhibition of IL-8 production was calculated at each concentration of test compound by comparison with vehicle control. The 50% inhibitory concentration (IC50) was determined from the resultant concentration-response curve.

[4] = test system: LPS-induced TNFα release in THP-1 cells; assay: LPS-induced TNFα release in THP-1 cells; format: cell-based; conditions: Homo sapiens, 3 μg/mL LPS, 4 hr
Method: Cellular Potency as Determined by LPS-Induced TNFα Release in THP-1 Cells
THP-1 cells, a human monocytic cell line, were stimulated with 3 μg/mL of LPS (from E. Coli; 0111:B4, Sigma) for 4 hr and the supernatant collected for determination of the TNFα concentration by sandwich ELISA (Duo-set, R&D systems). The inhibition of TNFα production was calculated at each concentration by comparison with vehicle control. The 50% inhibitory concentration (IC50) was determined from the resultant concentration-response curve.

[5] = test system: Differentiated U937 cells; assay: MTT assay: cell viability on exposure to test compounds; format: cell-based, human; conditions: percentage loss of cell viability vs vehicle; for MTT Assay (Viability) 4 h d-U937: 5% FCS; for MTT Assay (Viability) 24 h d-U937: 10% FCS
Method: MTT Assay: Determination of Cell Viability on Exposure to Test Compounds
Differentiated U937 cells were pre-incubated with each test compound under two protocols: the first for 4 hr in 5% FCS and the second in 10% FCS for 24 h. The supernatant was replaced with 200 μL of new media and 10 μL of MTT stock solution (5 mg/mL) was added to each well. After incubation for 1 hr the media were removed, 200 μL of DMSO was added to each well and the plates were shaken lightly for 1 hr prior to reading the absorbance at 550 nm. The percentage loss of cell viability was calculated for each well relative to vehicle (0.5% DMSO) treatment. Consequently an apparent increase in cell viability for drug treatment relative to vehicle is tabulated as a negative percentage.

[6] = test system: LPS-induced IL-8 release in d-U937 cells; assay: LPS-induced IL-8 release in d-U937 cells; format: cell-based; conditions: Homo sapiens, dU937, 0.1 μg/mL LPS, 4 hr
Method: as §1, §2

[7] = test system: Poly I:C-induced ICAM-1 expression in BEAS2B cells; assay: Poly I:C-induced ICAM-1 induction in BEAS2B cells; format: cell-based; conditions: Homo sapiens, BEAS-2B, poly I:C 1 μg/mL, 18 hr, read-out: PolyI:C/ICAM1 IC50 BEAS2B
Method: Cellular Potency as Determined by Poly I:C-Induced ICAM-1 Induction in BEAS2B Cells
Poly I:C (1 μg/mL) (Invivogen Ltd., San Diego, Calif.) was transfected into BEAS2B cells (human bronchial epithelial cells, ATCC) with Oligofectamine (Invitrogen, Carlsbad, Calif.). Cells were pre-incubated with final concentrations of test compounds for 2 hr and the level of ICAM1 expression on the cell surface was determined by cell-based ELISA. At a time point 18 hr after poly I:C transfection, cells were fixed with 4% formaldehyde in PBS and then endogenous peroxidase was quenched by the addition of 0.1% sodium azide and 1% hydrogen peroxide. Cells were washed with wash-buffer (0.1% Tween in PBS: PBS-Tween). and after blocking the wells with 5% milk in PBS-Tween for 1 hr, the cells were incubated with anti-human ICAM-1 antibody (Cell Signaling Technology, Danvers, Mass.) in 1% BSA PBS overnight at 4° C. The cells were washed with PBS-Tween and incubated with the secondary antibody (HRP-conjugated anti-rabbit IgG, Dako Ltd., Glostrup, Denmark). The ICAM-1 signal was detected by adding substrate and reading the absorbance at 450 nm against a reference wavelength of 655 nm using a spectrophotometer. The cells were then washed with PBS-Tween and total cell numbers in each well were determined by reading absorbance at 595 nm after Crystal Violet staining and elution by 1% SDS solution. The measured OD 450-655 readings were corrected for cell number by dividing with the OD595 reading in each well. The inhibition of ICAM-1 expression was calculated at each concentration of test compound by comparison with vehicle control. The 50% inhibitory concentration (IC50) was determined from the resultant concentration-response curve.

SMILES	IC50 [1]	IC50 [2]	EC50 [3]	IC50 [4]	IC50 [6]	MTT Assay (Viability) 4 h d-U937 ([5]; 1 μg/mL)	MTT Assay (Viability) 24 h d-U937 ([5]; 1 μg/mL)	IC50 [7]	MTT Assay (Viability) 4 h d-U937 ([5]; 10 μg/mL)	MTT Assay (Viability) 24 h d-U937 ([5]; 10 μg/mL)
COCC(=O)Nc1cc(Oc2ccc(NC(=O)Nc3cc(C(C)(C)C)nn3-c3ccc(O)nc3)c3ccccc23)ccn1.Cl [Example 17, N-(4-(4-(3-(3-tert-Butyl-1-(6-hydroxypyridin-3-yl)-1H-pyrazol-5-yl)ureido)naphthalen-1-yloxy)pyridin-2-yl)-2-methoxyacetamide]	76.3 nM	14.3 nM	1.4 nM	2 nM	24.5 nM	−6.1%	−7.6%	25.3 nM		
COCC(=O)Nc1cc(Oc2ccc(NC(=O)Nc3cc(C(C)(C)C)nn3-c3cc(C)cs3)c3ccccc23)ccn1 [Example 18, N-(4-(4-(3-(3-tert-Butyl-1-(4-methylthiophen-2-yl)-1H-pyrazol-5-yl)ureido)naphthalen-1-yloxy)pyridin-2-yl)-2-methoxyacetamide]	95.5 nM	8.8 nM	0.7 nM	1.2 nM	40 nM	8.2%	−2.9%	3.7 nM		
COCC(=O)Nc1cc(Oc2ccc(NC(=O)Nc3cc(-c4ccccc4)nn3-c3ccccc3)c3ccccc23)ccn1 [Example 19, N-(4-((4-(3-(1,3-Diphenyl-1H-pyrazol-5-yl)ureido)naphthalen-1-yl)oxy)pyridin-2-yl)-2-methoxyacetamide]	261 nM	0.4 nM	8.1 nM	1.8 nM	24.5 nM	−1.7%	−11.7%	369 nM		
COCC(=O)Nc1cc(Oc2ccc(NC(=O)Nc3cc(C4(C)CCOCC4)nn3-c3ccc(C)cc3)c3ccccc23)ccn1 [Example 20, 2-Methoxy-N-(4-(4-(3-(3-(4-methyltetrahydro-2H-pyran-4-yl)-1-p-tolyl-1H-pyrazol-5-yl)ureido)naphthalen-1-yloxy)pyridin-2-yl)acetamide]	143 nM	3.6 nM	0.2 nM	0.9 nM	0.6 nM	−32.6%	−9.0%	4.4 nM		
COCC(=O)Nc1cc(Sc2ccc(NC(=O)Nc3cc(C(C)(C)C)nn3-c3ccc(C)cc3)c3ccccc23)ccn1 [Example 21, N-(4-(4-(3-(3-tert-Butyl-1-p-tolyl-1H-pyrazol-5-yl)ureido)naphthalen-1-ylthio)pyridin-2-yl)-2-methoxyacetamide]	341 nM	26 nM	6.6 nM	2.5 nM	30.3 nM	2.7%	5.3%	6.3 nM		
COCCOCC(=O)Nc1cc(C(=O)c2ccc(NC(=O)Nc3cc(C(C)(C)C)nn3-c3ccc(C)cc3)c3ccccc23)ccn1 [Example 22, N-(4-(4-(3-(3-(tert-Butyl)-1-(p-tolyl)-1H-pyrazol-5-yl)ureido)-1-naphthoyl)pyridin-2-yl)-2-(2-methoxyethoxy)acetamide]	7030 nM	14 nM	3 nM	53.6 nM	651 nM			572 nM	21.1^b %	80.8^b %

Now from value to molecule, other results behind:

IC50 [1]	IC50 [2]	EC50 [3]	IC50 [4]	IC50 [6]	SMILES	MTT Assay (Viability) 4 h d-U937 ([5]; 1 μg/mL)	MTT Assay (Viability) 24 h d-U937 ([5]; 1 μg/mL)	IC50 [7]	MTT Assay (Viability) 4 h d-U937 ([5]; 10 μg/mL)	MTT Assay (Viability) 24 h d-U937 ([5]; 10 μg/mL)
3010 nM	20.3 nM	3.4 nM	12.4 nM	21.4 nM	CCNC(=O)Nc1cc(Cc2ccc(NC(=O)Nc3cc(C(C)(C)C)nn3-c3ccc(C)cc3)c3ccccc23)ccn1 [Example 23, 1-(3-(tert-Butyl)-1-(p-tolyl)-1H-pyrazol-5-yl)-3-(4-((2-(3-ethylureido)pyridin-4-yl)methyl)naphthalen-1-yl)urea]			20.3 nM	15.2^b %	−1.7^b %
1340 nM	1.5 nM	3.3 nM	11.8 nM	35.6 nM	COCC(=O)Nc1cc(Oc2ccc(NC(=O)Nc3cc(C4CC4)nn3-c3ccc(C)cc3)c3ccccc23)ccn1 [Example 24, N-(4-((4-(3-(3-cyclopropyl-1-p-tolyl-1H-pyrazol-5-yl)ureido)naphthalen-1-yl)oxy)pyridin-2-yl)-2-methoxyacetamide]	−10.8%	−7.4%	110 nM		
779 nM	48.2 nM	0.4 nM	3.5 nM	1 nM	COCC(=O)Nc1cc(Oc2ccc(NC(=O)Nc3cc(C4(C)CCCCC4)nn3-c3ccc(C)cc3)c3ccccc23)ccn1 [Example 26, 2-methoxy-N-(4-(4-(3-(3-(1-methylcyclohexyl)-1-p-tolyl-1H-pyrazol-5-yl)ureido)naphthalen-1-yloxy)pyridin-2-yl)acetamide]	−27.9%	−33.2%	4.4 nM		
1970 nM	74.3 nM	18.8 nM	15.2 nM	3520 nM	COCC(=O)Nc1cc(Oc2ccc(NC(=O)Nc3cc(C45CC6CC(CC(C6)C4)C5)nn3-c3ccc(C)cc3)c3ccccc23)ccn1 [Example 27, N-(4-(4-(3-(3-(adamantan-1-yl)-1-p-tolyl-1H-pyrazol-5-yl)ureido)naphthalen-1-yloxy)pyridin-2-yl)-2-methoxyacetamide]	−4.6%	−23.9%	284 nM		
9300 nM	1.4 nM	7.1 nM	41.3 nM	62.7 nM	COCC(=O)Nc1cc(Oc2ccc(NC(=O)Nc3cc(C4CCOCC4)nn3-c3ccc(C)cc3)c3ccccc23)ccn1 [Example 28, 2-methoxy-N-(4-(4-(3-(3-(tetrahydro-2H-pyran-4-yl)-1-p-tolyl-1H-pyrazol-5-yl)ureido)naphthalen-1-yloxy)pyridin-2-yl)acetamide]	−23.7%	−34.5%	1580 nM		
